The values that follow come from patent publication US20040175691A1, “Use of the KCNQ2 and KCNQ3 genes for the discovery of agents useful in the treatment of neurological disorders” (priority 1998, published 2004).

In one experiment the target is KCNQ2 (Homo sapiens, UniProt O43526, DEL417-446). The experiment can be described thus: Perforated-patch voltage clamp of HEK 293E cells stably expressing hKCNQ2. Also noted: Full-length hKCNQ2 cDNAs were amplified from adult human brain cDNA; expressed in transfected cells; host or cells: 293 EBNA (HEK 293E) cells, episomal plasmid pm3AR-hKCNQ2-1, hygromycin B selection. Type of experiment: cell-based. The following applies: FIG. 5 (0.3 uM). How it is done: To determine whether the hygromycin B resistant HEK 293E cells express functional hKCNQ2 channels, the presence of potassium currents was evaluated using the perforated-patch voltage-clamp technique. Briefly, cells growing on plastic Petri dishes or poly-D-lysine-coated glass coverslips in DMEM (with 10% FBS and 250 ug/ml hygromycin B) at 37° C. and 5% CO2 were removed from the incubator and allowed to reach room temperature. Growth medium was replaced with a bathing solution containing, in mM: 140 NaCl, 3 KC1, 2.5 CaCl2, 1 MgCl2, 10 HEPES, 10 dextrose, pH adjusted to 7.2-7.4 with NaOH and osmolarity adjusted to 305-310 mosm with water. […]
Stock solution(s) of test compound(s) was (were) prepared immediately before use. […] Generally, the stock solution is about 0.1 mM to about 100 mM in DMSO and the aliquot is about 5 to about 100 uL, but it is understood that the concentration and volumes are not limited to these ranges for one skilled in the art can readily determine the appropriate concentrations and volumes dependening on the activity of the compound in the assay and the sensitivity of detection. […]

For experiment [1], the system named is phasic sympathetic neurons. Nature of the experiment: Firing properties of phasic sympathetic neurons from the SCG. Conditions: 10 μM. Type of experiment: cell-based, rat. How it is done:
(§1) Method: Recordings of the M-current in sympathetic neurons in intact ganglia were performed at room temperature as described previously (Wang and McKinnon, 1995). The standard extracellular recording solution was: NaCl (133 mM, KCl (4.7 mM), NaH2PO4 (1.3 mM), NaHCO3 (16.3 mM), CaCl2 (2 mM), MgCl2 (1.2 mM) and glucose (1.4 g/liter), bubbled with 95% O2-5% CO2 to give pH 7.2-7.4.

For the next experiment, the target named is T1, M-current (Rattus norvegicus, UniProt O88943+O88944).
T1 construct: from tissue
Nature of the experiment: Blockade of native M-current in SCG neurons (voltage clamp, intact ganglia). The following applies: native M-current, SCG neurons; mean±s.e.m. Type of experiment: cell-based. As for the experimental part:
as §1
A. Blockade of M-current in SCG neurons by XE991. Holding potential was −30 mV and step potential was −50 mV for 1 second. The shift in holding current following drug application is due to the inhibition of M-current activated at the holding potential.
Maximal block of native M-current was 93±2%. Data points are averages and error bars represent s.e.m.

On to `O=C1c2ccccc2C(Cc2ccncc2)(Cc2ccncc2)c2ccccc21` [XE991, 10,10-bis(4-pyridinylmethyl)-9(10H)-anthracenone], for which the “Block of hKCNQ2 current” value at KCNQ2 is recorded as “reversibly blocks hKCNQ2”. In addition, the “Effect on firing properties of phasic neurons” value in experiment [1] is “converts the firing properties from phasic to tonic”. The IC50 on M-current turned out to be 980 ± 150 nM.
